{"source": "patent US9995679B2", "about": "“Targeted probes of cellular physiology” (Carnegie Mellon University, priority 2010, dated 2018)", "key": {"[1]": {"test_system": "selected modules (FAP) that activate malachite green", "assay": "Fluorogen activation by selected FAP modules (switching ratio)", "assay_type": "biochemical", "settings": "in buffer", "from_the_text": "Malachite green can serve as an acceptor, as we already have selected modules that activate it with switching ratios of >15,000 fold in buffer. Additional fluorogens may be designed and synthesized. Unsymmetric polymethine dyes, and analogs of indocyanine green may be used as fluorogens, as can many of the polarity sensing dyes (e.g. merocyanine and styryl dyes) with far-red and near IR emission. Fluorogens are screened for nonspecific activation in cell lysate before incorporation into the biosensor composition. Quenching and activation by selected FAP modules are characterized in buffer and cell lysate to determine the activation ratio. FAP/biosensor pairs with acceptable switching ratios are characterized by FCS and TIRF-single molecule microscopy."}, "[2]": {"assay": "Calcium titration curve of MG-PEG7-Rhod2 sodium salt with dL5, fluorescence by plate reader", "assay_type": "binding", "settings": "with dL5 (tandem dimer of L5-MG E52D L91S); free Ca 0-39 μM calibration buffers; FIG. 15", "experimental": "A calcium titration curve for MG-PEG7-Rhod2 sodium salt (compound 18 of Example 8, was measured.\nCompound 18 and 2 μL of dL5 (A tandem dimer of L5-MG E52D L91S (FIG. 1A) separated by a G4S linker) is dissolved in each 600 μL of 0 calcium solution^1 (solution A, Invitrogen™ Cat. no. C-3008MP Calcium Calibration Buffer Kit #1) and 600 μL 39 calcium solution (solution B, Invitrogen™ Cat. no. C-3008MP Calcium Calibration Buffer Kit #1). Each volume of A and B solutions was added into 96 well black plate as described in Table 1.\nAnd then, each solution was measured fluorescence by plate reader (TECAN safire2)."}, "[3]": {"test_system": "malachite green binding FAP clone", "assay": "Fluorescence correlation spectroscopy (FCS) of dye with MG-binding FAP", "settings": "500-fold molar excess of protein, FIG. 6", "from_the_text": "To assess the feasibility of this approach, two key criteria have been met. First, the spectral properties of Rhod-2 are almost identical to the CY3 that has already been used as a successful donor molecule. Second, the rhodamine moiety, which is structurally similar to malachite green, has been shown not to bind or block binding of the MG-binding FAP module. […] These findings support the design of this probe."}}, "note": "Entries after “also recorded” stand apart in the source; their conditions may differ."}
{"compound": "CN(C)c1ccc(C(=C2C=CC(=[N+](C)C)C=C2)c2ccccc2)cc1", "note": "[Malachite green]", "values": [{"measurement": "switching ratio (fluorescence activation by FAP)", "setting": "[1]", "result": "> 15,000 fold"}]}
{"compound": "MG-PEG7-Rhod2 Sodium Salt [Compound 18]", "values": [{"measurement": "mid-point for calcium binding (ratio of rhod2 excitation peak to MG excitation peak at ~640 nm vs free calcium)", "setting": "[2]", "result": 0.5, "unit": "micro molar"}]}
{"compound": "CCN(CC)c1ccc2c(-c3ccccc3C(=O)O)c3ccc(=[N+](CC)CC)cc-3oc2c1.[Cl-]", "note": "[rhodamine B]", "values": [{"measurement": "binding to / inhibition of MG binding of the malachite green binding FAP", "setting": "[3]", "result": "does not associate with the malachite green binding clone; also recorded: neither binds to nor inhibits normal binding"}]}
